This assay has as its target T1, SARM1 (50-724) (Homo sapiens, UniProt Q6SZW1).
T1 construct: Purified SARM1 (50-724) with a final concentration of 2 nM was pre-incubated with a test compound
T1 sequence (Q6SZW1 50-724): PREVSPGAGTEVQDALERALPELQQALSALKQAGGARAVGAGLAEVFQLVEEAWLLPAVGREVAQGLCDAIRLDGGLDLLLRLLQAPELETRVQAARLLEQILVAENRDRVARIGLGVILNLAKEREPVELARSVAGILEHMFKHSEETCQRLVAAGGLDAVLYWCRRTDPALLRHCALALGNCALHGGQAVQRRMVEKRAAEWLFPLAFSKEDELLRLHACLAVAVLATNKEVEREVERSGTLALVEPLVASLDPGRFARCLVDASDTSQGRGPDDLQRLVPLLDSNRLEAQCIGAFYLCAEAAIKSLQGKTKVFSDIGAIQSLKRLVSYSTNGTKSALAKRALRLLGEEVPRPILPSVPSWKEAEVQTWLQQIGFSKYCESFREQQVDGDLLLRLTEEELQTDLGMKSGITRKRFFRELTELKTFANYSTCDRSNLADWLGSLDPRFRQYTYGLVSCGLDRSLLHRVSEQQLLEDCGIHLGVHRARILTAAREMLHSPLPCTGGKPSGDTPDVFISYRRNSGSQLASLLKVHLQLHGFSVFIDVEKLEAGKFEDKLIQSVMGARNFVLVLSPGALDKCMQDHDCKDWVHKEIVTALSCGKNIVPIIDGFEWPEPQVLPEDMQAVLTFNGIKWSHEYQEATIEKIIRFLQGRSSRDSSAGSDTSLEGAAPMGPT
Description: SARM1 (50-724) enzymatic assay (LC-MS/MS). The class given is biochemical. To be noted: Purified SARM1 (50-724) 2 nM, NMN as activator, NAD+ as substrate, 1 h at room temperature, read-out: IC50 (SARM1 inhibitory activity). Summed up: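 Reaction buffer was Dulbecco's PBS. Compound and 2 nM human SARM1 (50-724) were pre-incubated 15 min at room temperature, then […] NAD^+ and 200 µM NMN activator were added for 1 h at room temperature. Acetonitrile (70%) stop, LC-MS/MS read-out, IC50 values.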

One may read the IC50 as the concentration needed to halve the response being measured.

The structures appear in SMILES notation.

In the case of `N#CCc1cccc2[nH]c(-c3nncn3-c3cnccc3C(F)(F)F)nc12` [Compound 437, 2-(2-(4-(4-(trifluoromethyl)pyridin-3-yl)-4H-1,2,4-triazol-3-yl)-1H-benzo[d]imidazol-4-yl)acetonitrile], the IC50 is above 1000 nM. As for `FC(F)(F)c1ccncc1-n1cnnc1-c1nc2cc(N3C4COCC3C4)ccc2[nH]1` [Compound 342, 6-[2-[4-[4-(trifluoromethyl)-3-pyridyl]-1,2,4-triazol-3-yl]-1H-benzimidazol-5-yl]-3-oxa-6-azabicyclo[3.1.1]heptane], the figure is 500 to 1000 nM. The same measure for `Cc1ccc2[nH]c(-c3cc(C(N)=O)cn3C3CCCC3)nc2c1` [Compound 20, 1-cyclopentyl-5-(5-methyl-1H-benzo[d]imidazol-2-yl)-1H-pyrrole-3-carboxamide]: 500 to 1000 nM; for `C[S+]([O-])Cc1nnc(-c2nc3cc(C(F)(F)F)ccc3[nH]2)n1-c1cccc(Cl)c1Cl` (single isomer, unassigned) [Compound 147, 2-(4-(2,3-dichlorophenyl)-5-((methylsulfinyl)methyl)-4H-1,2,4-triazol-3-yl)-5-(trifluoromethyl)-1H-benzo[d]imidazole]: at most 100 nM; for `Fc1cc(C23COCC2C3)cc2nc(-c3nncn3-c3cnccc3C(F)(F)F)[nH]c12` (centres unmarked) [Compound 374]: at most 100 nM. For the compound `CN(c1ccc2[nH]c(-c3nncn3-c3cnccc3C(F)(F)F)nc2c1)S(C)(=O)=O` [Compound 341, N-methyl-N-[2-[4-[4-(trifluoromethyl)-3-pyridyl]-1,2,4-triazol-3-yl]-1H-benzimidazol-5-yl]methanesulfonamide], the IC50 lay within 100 to 500 nM. As for `COc1cc(-n2cnnc2-c2nc3cc(C(F)(F)F)ccc3[nH]2)c(OC(F)(F)F)cn1` [Compound 210, 2-(4-(2-methoxy-5-(trifluoromethoxy)pyridin-4-yl)-4H-1,2,4-triazol-3-yl)-5-(trifluoromethyl)-1H-benzo[d]imidazole], the figure is at most 100 nM. As for `OCCc1nnc(-c2nc3cc(C(F)(F)F)ccc3[nH]2)n1-c1cccc(Cl)c1Cl` [Example 121, 2-(4-(2,3-Dichlorophenyl)-5-(5-(trifluoromethyl)-1H-benzo[d]imidazol-2-yl)-4H-1,2,4-triazol-3-yl)ethan-1-ol], the figure is at most 100 nM.

Consider `[O-][S+]1CCN(c2ccccc2)C(c2nc3cc(C(F)(F)F)ccc3[nH]2)C1` (centres unmarked) [Compound 325, 4-phenyl-3-(5-(trifluoromethyl)-1H-benzo[d]imidazole-2-yl)thiomorpholine 1-oxide], for which the IC50 is above 1000 nM. As for `[2H]c1nnc(-c2nc3cc(C4([2H])CC4)cc(F)c3[nH]2)n1-c1cnccc1C(F)(F)F` [Compound 359, 5-(cyclopropyl-1-d)-7-fluoro-2-(4-(4-(trifluoromethyl)pyridin-3-yl)-4H-1,2,4-triazol-3-yl-5-d)-1H-benzo[d]imidazole], the figure is at most 100 nM; as for `CP(C)(=O)c1cc(F)c2[nH]c(-c3nncn3-c3cnccc3C(F)(F)F)nc2c1` [Compound 392, 5-dimethylphosphoryl-7-fluoro-2-[4-[4-(trifluoromethyl)-3-pyridyl]-1,2,4-triazol-3-yl]-1H-benzimidazole], 100 to 500 nM; as for `Cn1cc(Cl)c(-n2cnnc2-c2nc3cc(C(F)(F)F)ccc3[nH]2)cc1=O` [Compound 173, 5-chloro-1-methyl-4-(3-(5-(trifluoromethyl)-1H-benzo[d]imidazol-2-yl)-4H-1,2,4-triazol-4-yl)pyridin-2(1H)-one], 100 to 500 nM. Consider `NC(=O)C1(c2ccc3[nH]c(-c4nncn4-c4ccc(F)c(F)c4Cl)nc3c2)CC1` [Compound 171, 1-(2-(4-(2-chloro-3,4-difluorophenyl)-4H-1,2,4-triazol-3-yl)-1H-benzo[d]imidazol-5-yl)cyclopropane-1-carboxamide], for which the IC50 was at most 100 nM. The same measure for `Fc1cccc(-n2c(CCc3nccs3)nnc2-c2nc3cc(C(F)(F)F)ccc3[nH]2)c1Cl` [Compound 419, 2-(2-(4-(2-chloro-3-fluorophenyl)-5-(5-(trifluoromethyl)-1H-benzo[d]imidazol-2-yl)-4H-1,2,4-triazol-3-yl)ethyl)thiazole]: 100 to 500 nM.

For `CS(=O)(=O)Cc1nnc(-c2nc3cc(C(F)(F)F)cc(F)c3[nH]2)n1-c1cccc(Cl)c1Cl` [Compound 185, 2-(4-(2,3-dichlorophenyl)-5-((methylsulfonyl)methyl)-4H-1,2,4-triazol-3-yl)-4-fluoro-6-(trifluoromethyl)-1H-benzo[d]imidazole], the IC50 is at most 100 nM.

On to `Clc1cccc(-n2cnnc2-c2nc3cc(-c4ccn[nH]4)ccc3[nH]2)c1Cl` [Example 68, 2-(4-(2,3-dichlorophenyl)-4H-1,2,4-triazol-3-yl)-5-(1H-pyrazol-5-yl)-1H-benzo[d]imidazole], for which the IC50 is at most 100 nM.

As for `CN1CCN(c2ccc(Cl)c(-n3cnnc3-c3nc4cc(C(F)(F)F)ccc4[nH]3)n2)CC1=O` [Compound 208, 4-(5-chloro-6-(3-(5-(trifluoromethyl)-1H-benzo[d]imidazol-2-yl)-4H-1,2,4-triazol-4-yl)pyridin-2-yl)-1-methylpiperazin-2-one], the IC50 was at most 100 nM. For `Clc1cccc(-n2cnnc2-c2nc3cc(C4CCCO4)ccc3[nH]2)c1Cl` (centres unmarked) [Compound 136, 2-(4-(2,3-dichlorophenyl)-4H-1,2,4-triazol-3-yl)-5-(tetrahydrofuran-2-yl)-1H-benzo[d]imidazole], the IC50 was at most 100 nM. The same measure for `FC(F)(F)c1ccc2[nH]c(C3CSCC3c3ccccc3Cl)nc2c1` (centres unmarked) [Compound 340, 2-(4-(2-chlorophenyl)tetrahydrothiophen-3-yl)-5-(trifluoromethyl)-1H-benzo[d]imidazole]: 100 to 500 nM; for `Cc1cc(-c2cnccc2C(F)(F)F)c(-c2nc3cc(C(F)(F)F)ccc3[nH]2)nn1` [Compound 377, 2-(6-Methyl-4-(4-(trifluoromethyl)pyridin-3-yl)pyridazin-3-yl)-5-(trifluoromethyl)-1H-benzo[d]imidazole]: 100 to 500 nM. As for `Cn1ncc(C(F)(F)F)c1-n1cnnc1-c1nc2cc(C(F)(F)F)ccc2[nH]1` [Compound 257, 2-(4-(1-methyl-4-(trifluoromethyl)-1H-pyrazol-5-yl)-4H-1,2,4-triazol-3-yl)-5-(trifluoromethyl)-1H-benzo[d]imidazole], the figure is at most 100 nM; as for `FC(F)(F)c1ccc2[nH]c(-c3oncc3-c3cccc(Cl)c3Cl)nc2c1` [Compound 273, 4-(2,3-dichlorophenyl)-5-(5-(trifluoromethyl)-1H-benzo[d]imidazol-2-yl)isoxazole], 100 to 500 nM.

As for `O=c1nc(-c2nc3cc(C(F)(F)F)ccc3[nH]2)c(-c2cccc(Cl)c2Cl)c[nH]1` [Example 54], the IC50 fell in the range of 100 to 500 nM.

As for `OCC1CC1c1cc(F)c2[nH]c(-c3nncn3-c3cnccc3C(F)(F)F)nc2c1` (centres unmarked) [Compound 416, (2-(7-fluoro-2-(4-(4-(trifluoromethyl)pyridin-3-yl)-4H-1,2,4-triazol-3-yl)-1H-benzo[d]imidazol-5-yl)cyclopropyl)methanol], the IC50 was at most 100 nM.

As to `O=S1(=O)CC(c2nc3cc(C(F)(F)F)ccc3[nH]2)=C(c2ccccc2Cl)C1` [Compound 337, 3-(2-chlorophenyl)-4-(5-(trifluoromethyl)-1H-benzo[d]imidazol-2-yl)-2,5-dihydrothiophene 1,1-dioxide], the IC50 is above 1000 nM. As for `O=C(O)C1(c2ccc3[nH]c(-c4nncn4-c4cccc(Cl)c4Cl)nc3c2)CCC1` [Example 113], the figure is at most 100 nM.

The values above are taken from patent publication US20260258064A1 (SIRONAX LTD., priority 2023, published 2026).
